Reference: US9487551B2, “Small molecule compounds that control mammal-pathogenic nematodes” (California Institute of Technology, priority 2011, dated 2016)
Entries after “also recorded” stand apart in the source; their conditions may differ.

Columns and labels:
S. feltiae = assay: Ascaroside function (Table 12); assay type: in vivo, Steinernema feltiae; details: listed = has this function
Experimental: (§1) Various ascarosides and ascaroside blends were administered to various nematodes described below (Table 12). […] A very strong result of affecting nematode behavior is designated in the table as “strong.”

C. elegans dauer larvae = assay: Dispersal assay; assay type: in vivo; details: physiological concentration; 0.25% E. coli added; food-only control approximately 35%
Experimental: C. elegans dauer juveniles were washed with MILLI-Q water 3 times, placed into 6 cm petri dishes with a small amount of water, and rested overnight. Approximately 200-300 nematodes in 10 μl of water were placed on an agar plate, to which 2 μl of treatment was added. The liquid culture that produced 60% dauer animals was centrifuged, filtered with a 0.45 μm filter, and used as a positive control for dispersal. Thereafter, media were lyophilized and resuspended in MILLI-Q water 5 times. 2 μl to 10 μl of nematode suspension was used for the assay. As a negative control, 0.5% E. coli (HB101) was prepared in S-complete, lyophilized, and adjusted to the final volume of 0.25% E. coli in the assay.
Nematodes were quantified using Image J software (Image Processing and Analysis in Java, National Institutes of Health). The number of nematodes visualized and counted using Image J is illustrated in FIG. 63B. Nematodes inside the circle were subtracted manually from the total number of worms counted because of the location of their placement. Each treatment was replicated 9-11 times. The graph was normalized to the positive control, the dauer conditioned medium.
A synthetic blend of these ascarosides was then tested for dispersal activity, using the dauer conditioned medium as a positive control. The media was estimated to contain approximately half of the original 0.5% E. coli (HB101) food source. […]

C. elegans [1] = assay: Ascaroside function (Table 12); assay type: in vivo, Caenorhabditis elegans; set-up: key to Attract Females/Herm. / Promote Dauer Formation / Attract Males: A very strong result of affecting nematode behavior is designated in the table as “strong.”; details: listed = has this function
Experimental: as §1

C. elegans [2] = details: cited from earlier work
C. elegans males = assay: Attraction assay (long-range, point source); assay type: in vivo; details: 10 cm plate
Experimental: 10 cm standard chemotaxis plates were prepared (Bargmann et al., Cell 74:515-27 (1993), which is hereby incorporated by reference in its entirety) and stored at 4° C. until the day before use. Standard 1 cm-diameter copper pipes were sectioned into 1 cm-tall segments to use for the holding chambers. The females/hermaphrodites were isolated overnight, washed 3 times in M9 buffer, and then allowed to wander on a plate pre-conditioned with 50 uL of 1000× treptomycin for 2 hours to kill any bacteria that might produce a false positive attractant. The nematodes were then washed 3 times, and the supernatant from the last wash was placed in a copper chamber, as the control, 1 cm from the border of the 10 cm plate. The nematodes were suspended in M9 within the copper chamber, 1 cm from the border opposite the control chamber. After 6 hours, they were subsequently removed and replaced with 3 μL of 1M sodium azide. 100 C. elegans adult males were isolated overnight, washed several times in ddH2O, and placed at the center of the agar plate. After several hours, males paralyzed within 2 cm of each region were scored. The Chemotaxis Index (Bargmann et al., Cell 74:515-27 (1993), which is hereby incorporated by reference in its entirety) was then used to score male chemotaxis to either point source.

C. elegans [3] = details: in vivo; cited from earlier work
[4] = system: Several of the tested nematode species; assay: Retention assay; assay type: in vivo; details: 1 nM, 1 μM and 1 mM tested
Experimental: (§2) OP50 E. coli was grown on a standard 5 cm agar plate (made with standard Nematode Growth Medium). The bacterial lawn was 16 mm in diameter and was grown overnight at 20° C. before being used in trials. Two 4 mm spots (0.6 μL) were placed on opposite sides of the bacterial lawn (using a transparent template to guide spot placement), and several minutes elapsed for the liquid to settle in before placing nematodes down on the assay. Recording began immediately upon worm placement. 0.6 μL of the control was placed on one side of the lawn, and 0.6 μL of the experimental cue was placed on the other side of the lawn, changing the location of the cue throughout trials between left/right and top/bottom to avoid bias.
(§3) Nematodes were isolated by gender at the L4 stage the day before being used in trials as developed adults. Worms were evenly divided and placed at two points equidistant from the foci of the scoring region. Trials were recorded for 20 minutes, and frames were collected for analysis at 1 frame per second. Results were averaged from at least three different trials. For every nematode species in this study, a different total number of worms (using water in both scoring regions) was tested to determine the minimum number of worms necessary for consistent unbiased results over a 20 minute trial. The total number of worms used in the multiple species assays depended on that species' optimal parameters. 10 worms were used for P. redivivus males and females, 20 worms were used for C. elegans males and O. dolichuridae males, and 14 worms were used for S. glaseri males. The Automated Software was used to compare worm occupancy in each scoring region over time, and the Chemotaxis Index (Bargmann et al., Cell 74:515-27 (1993), which is hereby incorporated by reference in its entirety) was adapted to score preference or avoidance to each ascaroside.
(§4) A video camera attached to the microscope produced a digital video stream, which was then analyzed. The ratio of the time the average worm spent in each region of interest was calculated for every trial. For ease of implementation, all worms in a single experiment were assumed to be roughly the same size. Thus worm pixels were counted instead of whole worms, allowing fractions of a worm in the region of interest to be taken into account. It also eliminated the need for a shape-based worm identification algorithm, and allowed each frame to be analyzed independently. A band-pass filter was applied to each frame to eliminate the effect of uneven lighting and also accentuate the worms against the background. The worm was then identified after thresholding the filtered image. Throughout each experiment, the locations and sizes of the regions of interest were known. Through the filtering described above, it is known which pixels are occupied by worms and which ones are not. Thus, the ratio of worm-pixels to all pixels inside the region of interest can be calculated to produce the worm-occupancy ratio. This calculation was done for every frame, giving a plot output of worm-occupancy ratio vs. time for each region.

Panagrellus redivivus = assay: Ascaroside function (Table 12); assay type: in vivo; details: listed = has this function
Experimental: as §1

S. glaseri = assay: Ascaroside function (Table 12); assay type: in vivo; details: listed = has this function
Experimental: as §1

[5] = system: P. redivivus males and females; assay: Retention assay; assay type: in vivo
Experimental: as §2, §3, §4

C. elegans [6] = assay: Spot attraction assay; assay type: in vivo
Experimental: The spot attraction assays were conducted according to a previously reported method (Pungaliya et al., PNAS 106:7708-13 (2009); Srinivasan et al., Nature 454:1115-18 (2008), which are hereby incorporated by reference in their entirety). For both C. elegans hermaphrodites and males, 50-60 worms were harvested daily at the fourth larval stage (L4) and stored segregatedly by sex at 20° C. overnight, to be used as young adults the following day. For the competition experiments, two conditions were used: 120 nM ascr#3 and 10 nM icas#3 (Condition 1), or 12 μM ascr#3 and 1 μM icas#3 (Condition 2) in water containing 10% ethanol. Aliquots were stored at −20° C. in 20 μL tubes. 10% ethanol in water was used as control.
Attraction assays with hbas#3 were conducted as previously reported (Srinivasan et al., Nature 454:1115-18 (2008); Pungaliya et al., Proc. Natl. Acad. Sci. U.S.A. 106:7708-13 (2009), which are hereby incorporated by reference in their entirety). For the attraction assays, 50-60 hermaphrodite worms were harvested daily at the early fourth larval stage (L4) and stored at 20° C. overnight to be used as young adults the following day. Hbas#3 was dissolved in water containing 10% ethanol. Aliquots were stored at −20° C. in 20 μL tubes. 10% ethanol in water was used as control.

C. elegans [7] = assay: Aggregation assay; assay type: in vivo
Experimental: Aggregation behavior of worms was measured using assays reported in de Bono & Bargmann, Cell 94:679-89 (1998), which is hereby incorporated by reference in its entirety. Aggregation assays were conducted on standard NGM plates. Plates containing indole ascarosides were made by adding the indole ascaroside stock solution to the NGM media before they were poured onto the plates. These plates were dried at room temperature for 2 to 3 days. Control plates were treated similarly, except that ethanol solutions instead of icas solutions were added to the plates, corresponding to the amount of ethanol introduced via the icas solutions. Final ethanol concentrations of the plates were below 0.1% for all conditions. After drying, both control plates and plates containing indole ascarosides were seeded with 150 μl of an overnight culture of E. coli OP50 using a micropipette, and were allowed to dry for 2 days at room temperature. For “low worm density” experiments, 20 worms were placed onto the lawn and left at 20° C. for 3 hours. For “high worm density” experiments, approximately 120 worms were placed onto the bacterial lawn and left at 20° C. for 3 hours. Aggregation behavior was quantified as the number of animals that were in touch with two or more animals at greater than 50% of their body length.

Row | SMILES | Dispersal (of dauer larvae, infectious juveniles) (S. feltiae) | dispersing nematodes, normalized to the percent of the positive control response (C. elegans dauer larvae) [%] | Attract Males (C. elegans [1]) | Dispersal (of dauer larvae, infectious juveniles) (C. elegans [1]) | Promote Dauer Formation (C. elegans [1]) | male attraction from a distance (C. elegans males) | dauer-inducing activity (C. elegans [3]) | other results
1 | CC(=O)CCC[C@@H](C)O[C@@H]1O[C@@H](C)[C@H](O)C[C@H]1O [ascr#2] | ascr#2 | 40 | ascr#2 | ascr#2 | ascr#2 ([strong]) | chemotax towards | individually promote dauer entry | most active amount for attraction (C. elegans [2]; from 1 μM concentration): ~1 pmol; amount as low as which elicited C. elegans male attraction (C. elegans males): 500 attomol
2 | C[C@H](CC/C=C/C(=O)Nc1ccc(C(=O)O)cc1)O[C@@H]1O[C@@H](C)[C@H](O)C[C@H]1O [ascr#8] | ascr#8 | 50 | ascr#8 | ascr#8 | ascr#8 ([strong]) | not active | individually promote dauer entry | preference for ascaroside-conditioned areas [4]: preferred areas conditioned; Attract Females/Herm. (Panagrellus redivivus): ascr#8; Attract Males (Panagrellus redivivus): ascr#8; Attract Males (S. glaseri): ascr#8; male attraction (C. elegans [2]; in vivo): major component of the male-attracting signal
3 | C[C@H](CCC(=O)O)O[C@@H]1O[C@@H](C)[C@H](OC(=O)c2c[nH]c3ccccc23)C[C@H]1O [icas#9] | icas#9 | – | ([strong]) | – | icas#9 | – | moderate dauer-inducing activity; also recorded: individually promote dauer entry | response of P. redivivus males [5]: no response; Repel Females/Herm. (Panagrellus redivivus): icas#9; attraction in spot attraction assay (C. elegans [6]; 1 pmol (high concentrations), N2 hermaphrodites and him-5 males): attractive to both C. elegans sexes; also recorded: attracted both males and hermaphrodites; attraction of hermaphrodites (C. elegans [6]; low concentrations, N2 hermaphrodites): strongly attracted; attraction of males (C. elegans [6]; low concentrations, males): males are not attracted; Attract Females/Herm. (C. elegans [1]): icas#9 ([strong]); aggregation (C. elegans [2]; in vivo): aggregating stimulant; aggregation of solitary and social hermaphrodites (C. elegans [7]; constant background concentration): increased aggregation; also recorded: strongly increased the propensity; concentration window for hermaphrodite attraction and aggregation (C. elegans [7]; in vivo): femtomolar to picomolar
